The values below are quoted from earlier work in patent publication US20060116369A1, “Certain compounds, compositions, and methods” (priority 2004, published 2006).

For this series, the system named is A549 cells. Particulars: data provided by National Cancer Institute, Developmental Therapeutic Program.

As to `O=c1[nH]cc(F)c(=O)[nH]1` [5-fluorouracil], the GI50 (commonly the concentration at which growth is held to half of that of the control) was 1000 nM.
Consider `COc1cccc2c1C(=O)c1c(O)c3c(c(O)c1C2=O)C[C@@](O)(C(=O)CO)C[C@@H]3O[C@H]1C[C@H](N)[C@H](O)[C@H](C)O1` [doxorubicin], for which the GI50 is 63 nM.
`NC(=O)NO` [hydroxyurea]: the GI50 is 500000 nM.
Turning to `CC(=O)O[C@H]1C(=O)[C@@]2(C)[C@H]([C@H](OC(=O)c3ccccc3)[C@]3(O)C[C@H](OC(=O)[C@H](O)[C@@H](NC(=O)c4ccccc4)c4ccccc4)C(C)=C1C3(C)C)[C@]1(OC(C)=O)CO[C@@H]1C[C@@H]2O` [paclitaxel], the GI50 was 4 nM.
